From US4450162A, “Pyrimidine derivatives and a pharmaceutical composition containing them” (Sankyo Company, Limited, priority 1981, dated 1984)
Counter-ions that a name gives are not always drawn.

Tests used:
[1] = Antidepressant activity (general statement); conditions: in vivo
reserpine-induced ptosis = experiment: Test for anti-reserpine activity (inhibition of reserpine-induced ptosis); format: in vivo, male mice of the ddy strain; conditions: Mus musculus, po, read-out: Reserpine inhibition (percentage inhibition of reserpine-induced ptosis); for inhibition in vivo at 50 mg/kg: 50 mg/kg orally, reserpine 2 mg/kg s.c., sum of observations at 90, 120 and 180 min, groups of three mice
Protocol: 1 Test for anti-reserpine activity
The test animals used were male mice of the ddy strain, each weighing 23-25 g. Each compound was tested on a group of three such mice. Each test compound was employed in the form of a solution or suspension in a physiological saline solution containing 0.3% w/v carboxymethylcellulose. The test employed was a partial modification of the method of Rubin et al. [J. Pharmacol. Exptl.
At each observation, each mouse was assigned from 0 to 3 points corresponding to the degree of ptosis, as follows:
0 points: eyes completely open;
1 point: eyes about one third closed;
2 points: eyes about two thirds closed;
3 points: eyes completely closed.
For each mouse, the number of points from all three observations were added together and the percentage inhibition of reserpine-induced ptosis was calculated from the following formula: [formula] in which:
Po =total number of points from three observations of an animal to which reserpine alone was administered; and
Pt =total number of points from three observations of an animal to which reserpine and the test compound were administered.

Acute toxicity test = format: in vivo, male mice of the ddy strain; conditions: for Mortality (deaths/animals tested): 7 days observation
Protocol: The test animals used were male mice of the ddy strain, each weighing from 21 to 25 g. To each animal was administered orally a single dose of the test compound in the amount shown in Table 2; the animals were then placed under observation for 7 days after administration. The results are reported in Table 2 as "Mortality", where the numerator indicates the number of deaths in the observation period and the denominator indicates the number of animals tested with the particular test compound at the particular dose.

effects of d-amphetamine = experiment: Potentiation of d-Amphetamine effects; format: in vivo, male rats of the Wistar strain; conditions: 10 mg/kg orally, 60 min before d-amphetamine sulphate 2.5 mg/kg s.c.; observations 30-240 min; groups of 4 rats
Protocol: 2. Potentiation of d-Amphetamine effects
The test animals used in this experiment were male rats of the Wistar strain, each weighing from 250 to 300 g. The rats were employed in groups of 4 animals each, for each test. The test compound was employed in the form of a solution or suspension in physiological saline containing 0.3% w/v carboxymethylcellulose.
Each rat was placed in an observation cage and then given orally the solution or suspension of the test compound in an amount of 10 mg of test compound per kilogram body weight; 60 minutes later, 2.5 mg/kg of d-amphetamine sulphate were injected subcutaneously. The rats were observed 30 minutes, 60 minutes, 90 minutes, 120 minutes, 150 minutes, 180 minutes and 240 minutes after the injection of the d-amphetamine sulphate. At each observation, each animal was assigned from 0 to 5 points according to its mobility, as follows:
1 point: slight moving around;
3 points: sniffing appears;
4 points: licking appears;
5 points: biting appears.
The percentage potentiation of the effects of d-amphetamine was then calculated from the following formula: [formula] where:
P'o =total number of points from all observations of an animal to which d-amphetamine alone was administered; and
P't =total number of points from all seven observations of an animal to which both the test compound and d-amphetamine were administered.

| SMILES | inhibition in vivo at 50 mg/kg (reserpine-induced ptosis) | d-Amphetamine potentiation (percentage potentiation of the effects of d-amphetamine) (effects of d-amphetamine) | further results |
| --- | --- | --- | --- |
| Cc1ncnc(Nc2ccccc2)c1Br [4-anilino-5-bromo-6-methylpyrimidine] | – | – | antidepressant activity [1]: no antidepressant activity |
| c1ccc(Nc2ncnc3c2CCC3)cc1 [Compound No. 2, 4-Anilino-6,7-dihydro-5H-cyclopenta[d]pyrimidine hydrochloride] | 68.7% | – | – |
| Clc1ccc(Nc2ncnc3c2CCC3)cc1 [Compound No. 3, 4-(4-Chloroanilino)-6,7-dihydro-5H-cyclopenta[d]pyrimidine] | 82.3% | – | – |
| Brc1ccc(Nc2ncnc3c2CCC3)cc1 [Compound No. 5, 4-(4-Bromoanilino)-6,7-dihydro-5H-cyclopenta[d]pyrimidine] | 75.6% | – | Mortality (deaths/animals tested) (Acute toxicity test; single oral dose 500 mg/kg): 0/5; Mortality (deaths/animals tested) (Acute toxicity test; single oral dose 1000 mg/kg): 0/5 |
| N#Cc1ccc(Nc2ncnc3c2CCC3)cc1 [Compound No. 14, 4-(4-Cyanoanilino)-6,7-dihydro-5H-cyclopenta[d]pyrimidine] | – | – | inhibition in vivo at 25 mg/kg (reserpine-induced ptosis): 85% |
| Cc1ncnc(Nc2ccc(Cl)cc2)c1C [Compound No. 25, 4-(4-Chloroanilino)-5,6-dimethylpyrimidine] | 61.1% | 75% | – |
| Cc1ncnc(Nc2ccc(Br)cc2)c1C [Compound No. 28, 4-(4-Bromoanilino)-5,6-dimethylpyrimidine] | 61.1% | 79% | Mortality (deaths/animals tested) (Acute toxicity test; single oral dose 1000 mg/kg): 0/5 |
| Cc1ncnc(Nc2ccc(C(F)(F)F)cc2)c1C [Compound No. 38, 5,6-Dimethyl-4-(4-trifluoromethylanilino)pyrimidine] | 68.8% | – | – |
| Cc1ncnc(Nc2ccc(C(C)C)cc2)c1C [Compound No. 47, 4-(4-Isopropylanilino)-5,6-dimethylpyrimidine] | 70.6% | – | – |
| CN(C)CCCN1c2ccccc2CCc2ccccc21 [Imipramine hydrochloride, reference compound] | 72.2% | 77% | Mortality (deaths/animals tested) (Acute toxicity test; single oral dose 500 mg/kg): 3/5; Mortality: deaths on day 3 (Acute toxicity test; single oral dose 500 mg/kg, on day 3): 1; Mortality: deaths within 1 hour (Acute toxicity test; single oral dose 500 mg/kg, within 1 hour): 2 |
| CCc1ccc(Nc2ncnc3c2CCC3)cc1 [compound 9, 4-(4-Ethylanilino)-6,7-dihydro-5H-cyclopenta[d]pyrimidine] | 82.3% | – | – |
| FC(F)(F)c1ccc(Nc2ncnc3c2CCC3)cc1 [compound 11, 4-(4-Trifluoromethylanilino)-6,7-dihydro-5H-cyclopenta[d]pyrimidine] | 62.5% | – | – |
| Cc1ncnc(Nc2ccc(I)cc2)c1C [compound 32, 4-(4-Iodoanilino)-5,6-dimethylpyrimidine] | 43.8% | 76% | – |
| CCCCc1c(C)ncnc1Nc1ccc(Br)cc1 [compound 69, 4-(4-Bromoanilino)-5-n-butyl-6-methylpyrimidine] | – | 94% | – |
